# Reference: article PMC9688530, “Development of Ic-ELISA and Colloidal Gold Lateral Flow Immunoassay for the Determination of Cypermethrin in Agricultural Samples” (Biosensors, 2022)
# Legend:
# anti-CYP mAb = assay: colloidal gold LFIA strip; type: binding, mouse; parameters: key to T line color intensity: +++: More plus signs (+) mean darker red; ++-: More plus signs (+) mean darker red; +--: More plus signs (+) mean darker red; --- means no color band
# Experimental: Colloidal gold particles were synthesized with trisodium citrate as a reducing agent according to our previous work. For the preparation of colloidal gold mAb, 6.65 μg/mL anti-CYP mAbs were added to the colloidal gold solution adjusted to pH 8.2 using 0.2 mol/L K2CO3 with shaking at room temperature for 1 h. BSA (1%) was used to block free colloidal gold particles. After 1 h, the mixture was centrifuged at 12,000 revolutions per minute (RPM) for 15 min to remove free anti-CYP mAbs. The centrifuged deposits were resuspended using one-tenth of the original volume of sodium borate solution (0.01 mol/L) containing 2% BSA and 3% sucrose and preserved at 4 °C.
# As depicted in Figure 1A, the LFIA strip was assembled into four components. The center section of a PVC plate was affixed to an NC membrane. The sample pad and absorption pad were stuck on both ends of the PVC plate, and both overlapped with the NC membrane by 1 mm. A total of 2 mg/mL of hapten 5-BSA and 0.5 mg/mL of GAMA were sprayed onto the NC membrane as the test line and control line, respectively, with 5 mm intervals by an automatic dispenser. After drying at 37 °C for 12 h, the fabricated cards were cut into 4 mm wide LFIA strips.
# One hundred microliters of the CYP standard solution and 4 μL of the colloidal gold mAb solution were added into a micropore and mixed. After 5 min, an LFIA strip was inserted into the mixture solution. During the mixed solution migration from the sample pad to the absorbent pad, colloidal gold mAb was captured by the T and C lines, resulting in the appearance of color bands within 10 min. When the T line disappeared or the color intensity of the T line was lower than that of the C line, the result was positive (Figure 1B,C). When the color intensity of the T line was not less than that of the C line, the result was negative (Figure 1D).
# The sensitivity of the LFIA strip was evaluated by a series of CYP standard solutions (0.7, 0.6, 0.5, 0.4, 0.3, 0.2, 0.1, 0 μg/mL). For qualitative analysis, the sensitivity of the LFIA strip was appraised by the visual LOD (vLOD) and the cut-off value. The vLOD is the lowest concentration of CYP at which the lighter color of the T line is observed compared to the C line. The cut-off value is the minimum CYP concentration at which no color band appears on the T line.
# The CRs of the LFIA were calculated with the following equation:CR (%) = (vLOD of CYP/vLOD of analogues) × 100%.
# [1] = parameters: method as in doi:10.11895/j.issn.0253-3820.160428; conditions: cited from earlier work
smiles,measurement,setting,value
"CC1(C)C(C=C(Cl)Cl)C1C(=O)OC(C#N)c1cccc(Oc2ccccc2)c1 (stereo not drawn) [CYP, Cypermethrin]",T line color intensity,"anti-CYP mAb; 0.3 µg/mL, Acetone 10 v%",+++
same,T line color intensity,"anti-CYP mAb; 0.3 µg/mL, Acetone 20 v%",+++
same,T line color intensity,"anti-CYP mAb; 0.3 µg/mL, Acetone 30 v%",++-
same,T line color intensity,"anti-CYP mAb; 0.3 µg/mL, Acetone 40 v%",+--
same,T line color intensity,"anti-CYP mAb; 0.3 µg/mL, Acetonitrile 10 v%",+++
same,T line color intensity,"anti-CYP mAb; 0.3 µg/mL, Acetonitrile 20 v%",++-
same,T line color intensity,"anti-CYP mAb; 0.3 µg/mL, Acetonitrile 30 v%",+--
same,T line color intensity,"anti-CYP mAb; 0.3 µg/mL, Acetonitrile 40 v%",---
same,T line color intensity,"anti-CYP mAb; 0.3 µg/mL, Dimethyl sulfoxide 10 v%",++-
same,T line color intensity,"anti-CYP mAb; 0.3 µg/mL, Dimethyl sulfoxide 20 v%",+++
same,T line color intensity,"anti-CYP mAb; 0.3 µg/mL, Dimethyl sulfoxide 30 v%",++-
same,T line color intensity,"anti-CYP mAb; 0.3 µg/mL, Dimethyl sulfoxide 40 v%",++-
same,T line color intensity,"anti-CYP mAb; 0.3 µg/mL, Methanol 10 v%",+++
same,T line color intensity,"anti-CYP mAb; 0.3 µg/mL, Methanol 20 v%",+++
same,T line color intensity,"anti-CYP mAb; 0.3 µg/mL, Methanol 30 v%",++-
same,T line color intensity,"anti-CYP mAb; 0.3 µg/mL, Methanol 40 v%",+--
same,T line color intensity,"anti-CYP mAb; 0.3 µg/mL, Na+ 0.07 mol/L",+++
same,T line color intensity,"anti-CYP mAb; 0.3 µg/mL, Na+ 0.14 mol/L",+++
same,T line color intensity,"anti-CYP mAb; 0.3 µg/mL, Na+ 0.25 mol/L",+++
same,T line color intensity,"anti-CYP mAb; 0.3 µg/mL, Na+ 0.5 mol/L",++-
same,T line color intensity,"anti-CYP mAb; 0.3 µg/mL, Na+ 1 mol/L",++-
same,T line color intensity,"anti-CYP mAb; 0.3 µg/mL, Na+ 2 mol/L",+--
same,T line color intensity,"anti-CYP mAb; 0.3 µg/mL, pH 6",+++
same,T line color intensity,"anti-CYP mAb; 0.3 µg/mL, pH 7",+++
same,T line color intensity,"anti-CYP mAb; 0.3 µg/mL, pH 7.4",+++
same,T line color intensity,"anti-CYP mAb; 0.3 µg/mL, pH 8",++-
same,T line color intensity,"anti-CYP mAb; 0.3 µg/mL, pH 9",+--
same,T line color intensity,"anti-CYP mAb; 0.4 µg/mL, Acetone 10 v%",++-
same,T line color intensity,"anti-CYP mAb; 0.4 µg/mL, Acetone 20 v%",+--
same,T line color intensity,"anti-CYP mAb; 0.4 µg/mL, Acetone 30 v%",+--
same,T line color intensity,"anti-CYP mAb; 0.4 µg/mL, Acetone 40 v%",---
same,T line color intensity,"anti-CYP mAb; 0.4 µg/mL, Acetonitrile 10 v%",++-
same,T line color intensity,"anti-CYP mAb; 0.4 µg/mL, Acetonitrile 20 v%",+--
same,T line color intensity,"anti-CYP mAb; 0.4 µg/mL, Acetonitrile 30 v%",+--
same,T line color intensity,"anti-CYP mAb; 0.4 µg/mL, Acetonitrile 40 v%",---
same,T line color intensity,"anti-CYP mAb; 0.4 µg/mL, Dimethyl sulfoxide 10 v%",+--
same,T line color intensity,"anti-CYP mAb; 0.4 µg/mL, Dimethyl sulfoxide 20 v%",+--
same,T line color intensity,"anti-CYP mAb; 0.4 µg/mL, Dimethyl sulfoxide 30 v%",+--
same,T line color intensity,"anti-CYP mAb; 0.4 µg/mL, Dimethyl sulfoxide 40 v%",+--
same,T line color intensity,"anti-CYP mAb; 0.4 µg/mL, Methanol 10 v%",+--
same,T line color intensity,"anti-CYP mAb; 0.4 µg/mL, Methanol 20 v%",+--
same,T line color intensity,"anti-CYP mAb; 0.4 µg/mL, Methanol 30 v%",+--
same,T line color intensity,"anti-CYP mAb; 0.4 µg/mL, Methanol 40 v%",+--
same,T line color intensity,"anti-CYP mAb; 0.4 µg/mL, Na+ 0.07 mol/L",++-
same,T line color intensity,"anti-CYP mAb; 0.4 µg/mL, Na+ 0.14 mol/L",++-
same,T line color intensity,"anti-CYP mAb; 0.4 µg/mL, Na+ 0.25 mol/L",++-
same,T line color intensity,"anti-CYP mAb; 0.4 µg/mL, Na+ 0.5 mol/L",++-
same,T line color intensity,"anti-CYP mAb; 0.4 µg/mL, Na+ 1 mol/L",++-
same,T line color intensity,"anti-CYP mAb; 0.4 µg/mL, Na+ 2 mol/L",+--
same,T line color intensity,"anti-CYP mAb; 0.4 µg/mL, pH 6",++-
same,T line color intensity,"anti-CYP mAb; 0.4 µg/mL, pH 7",+--
same,T line color intensity,"anti-CYP mAb; 0.4 µg/mL, pH 7.4",++-
same,T line color intensity,"anti-CYP mAb; 0.4 µg/mL, pH 8",+--
same,T line color intensity,"anti-CYP mAb; 0.4 µg/mL, pH 9",---
same,T line color intensity,"anti-CYP mAb; 0.6 µg/mL, Acetone 10 v%",+--
same,T line color intensity,"anti-CYP mAb; 0.6 µg/mL, Acetone 20 v%",+--
same,T line color intensity,"anti-CYP mAb; 0.6 µg/mL, Acetone 30 v%",---
same,T line color intensity,"anti-CYP mAb; 0.6 µg/mL, Acetone 40 v%",---
same,T line color intensity,"anti-CYP mAb; 0.6 µg/mL, Acetonitrile 10 v%",+--
same,T line color intensity,"anti-CYP mAb; 0.6 µg/mL, Acetonitrile 20 v%",---
same,T line color intensity,"anti-CYP mAb; 0.6 µg/mL, Acetonitrile 30 v%",---
same,T line color intensity,"anti-CYP mAb; 0.6 µg/mL, Acetonitrile 40 v%",---
same,T line color intensity,"anti-CYP mAb; 0.6 µg/mL, Dimethyl sulfoxide 10 v%",---
same,T line color intensity,"anti-CYP mAb; 0.6 µg/mL, Dimethyl sulfoxide 20 v%",---
same,T line color intensity,"anti-CYP mAb; 0.6 µg/mL, Dimethyl sulfoxide 30 v%",---
same,T line color intensity,"anti-CYP mAb; 0.6 µg/mL, Dimethyl sulfoxide 40 v%",---
same,T line color intensity,"anti-CYP mAb; 0.6 µg/mL, Methanol 10 v%",---
same,T line color intensity,"anti-CYP mAb; 0.6 µg/mL, Methanol 20 v%",+--
same,T line color intensity,"anti-CYP mAb; 0.6 µg/mL, Methanol 30 v%",+--
same,T line color intensity,"anti-CYP mAb; 0.6 µg/mL, Methanol 40 v%",---
same,T line color intensity,"anti-CYP mAb; 0.6 µg/mL, Na+ 0.07 mol/L",---
same,T line color intensity,"anti-CYP mAb; 0.6 µg/mL, Na+ 0.14 mol/L",+--
same,T line color intensity,"anti-CYP mAb; 0.6 µg/mL, Na+ 0.25 mol/L",+--
same,T line color intensity,"anti-CYP mAb; 0.6 µg/mL, Na+ 0.5 mol/L",+--
same,T line color intensity,"anti-CYP mAb; 0.6 µg/mL, Na+ 1 mol/L",+--
same,T line color intensity,"anti-CYP mAb; 0.6 µg/mL, Na+ 2 mol/L",---
same,T line color intensity,"anti-CYP mAb; 0.6 µg/mL, pH 6",---
same,T line color intensity,"anti-CYP mAb; 0.6 µg/mL, pH 7",---
same,T line color intensity,"anti-CYP mAb; 0.6 µg/mL, pH 7.4",---
same,T line color intensity,"anti-CYP mAb; 0.6 µg/mL, pH 8",---
same,T line color intensity,"anti-CYP mAb; 0.6 µg/mL, pH 9",---
same,cut-off value,anti-CYP mAb; optimal buffer,0.6 µg/mL
same,visual limit of detection (vLOD),anti-CYP mAb; optimal buffer,0.3 µg/mL
same,sensitivity,[1],5000 ng/mL
